Earlier results as cited in US20140057918A1, “Methods of Use for Monomethyl Fumarate and Prodrugs Thereof” (XenoPort, Inc., priority 2012, published 2014).
Counter-ions that a name gives are not always drawn.

Assays:
herpes simplex virus = conditions: animals infected with the herpes simplex virus

COC(=O)/C=C/C(=O)OC [Dimethyl fumarate, Dimethyl (E)-butenedioate]
aqueous solubility: poor | herpes stromal keratitis (herpes simplex virus): improved
